Measured values from paper PMC9519446, “Discovery of an Orally Active Benzoxaborole Prodrug Effective in the Treatment of Chagas Disease in Non-human Primates” (Nature microbiology, 2022).
“And” between values parts separate entries of the source, which are not always exact repeats. Equal entries are not always repeated. Where two headings read alike, the source gives them in different places.

How the values were obtained:
[1] = tested on: T. cruzi intracellular amastigotes; assay: In vitro anti-T. cruzi intracellular amastigote growth inhibition assay (tdTomato fluorescence over 72 hours, Vero cells); type: cell-based, Trypanosoma cruzi; settings: for activity at 0.00407 µM: [uM] -2.39 [sic]
Experimental: (§1) The in vitro anti-T. cruzi amastiogote activity assay was performed and optimized based on the protocol described previously. The change in tdTomato fluorescence intensity was determined as a measurement of growth over 72 hours of culture. For assaying drug effects on extracellular amastigotes, trypomastigotes were collected from infected Vero cell cultures and converted in acidic media as previously described. Amastigotes (50,000/well) were incubated with 2-fold serial dilutions of compounds for 48 hours. The ATP production was used as an indication of growth in this case, and was measured by ATPlite Luminescence ATP Detection Assay System (PerkinElmer). Both fluorescence and luminescence were read using a BioTek Synergy Hybrid Multi-Mode reader equipped with the software Gene5 v 2.0 (BioTek). The dose-response curve was generated by […] analysis with GraphPad Prism v9.4.0 (GraphPad Software).

[2] = tested on: T. cruzi extracellular amastigotes; assay: Extracellular amastigote assay (ATPlite luminescence, 48 hours); type: cell-based; settings: Trypanosoma cruzi, extracellular amastigotes
Experimental: as §1

[3] = tested on: CPSF3-OE T. cruzi intracellular amastigotes; assay: microbe, parasite or virus in culture; type: cell-based; settings: Trypanosoma cruzi; for IC50: read-out: CPSF3-OE IC50, intracellular amastigotes; for activity at 0.1 µM / activity at 0.4 µM / activity at 0.7 µM / activity at 1 µM / activity at 1.3 µM / activity at 1.6 µM: 72 h, read-out: % of maximum, CPSF3-OE
Experimental: as §1
The CPSF3 gene was amplified using primers ‘[…]’ and ‘[…]’, and integrated into the pTrex vector [47] by NEBuilder HiFi DNA assembly (New England Biolabs). The construct of pTrex-CPSF was then transfected into Brazil tdTomato epimastigotes and selected by 60ug/ml blasticidin.
To confirm the CPSF overexpression in the selected transfectants, RNA was extracted as previously described and converted to cDNA using SuperScript Reverse Transcriptase (Invitrogen). Quantitative PCR reactions were performed in triplicate on the C1000 Touch Bio-Rad CFX96 real-time PCR detection system for CPSF using primer sets CPSF-1 (5'-[…]-3' and 5'-[…]-3') and CPSF-2 (5'-[…]-3' and 5'-[…]-3') in both control and CPSF over-expressing parasites, and the expression level was normalized to tubulin which was amplified using primers: ‘[…]’ and ‘[…]’.

[4] = tested on: TcCBP KO T. cruzi intracellular amastigotes; assay: microbe, parasite or virus in culture; type: cell-based; settings: Trypanosoma cruzi, read-out: TcCBP KO IC50
Experimental: as §1
The CBPs knockout was produced using ribonucleoprotein (RNP) complexes as previously described. Briefly, Brazil tdTomato strain epimastigotes were electroporated with RNP complexes containing SaCas9 and an sgRNA targeting CBP gene TcBrA4_0048170, plus a repair template containing stop codons in all three reading frames and the M13 sequence for use as a PCR anchor. The sgRNA targeted the ‘[…]” sequence. After 2 days of recovery, single-cell clones were derived by depositing epimastigotes into a 96-well plate at a density of 0.5 cell/well by using a MoFlo Astrios EQ cell sorter (Beckman Coulter). DNA isolation was performed for clones, and primer pair of 5’-[…]-3’ and 5’- […] -3’ was used for amplifying the wild type allele, while primer pair of M13-F: 5’- […] -3’ and 5’- […] -3’ was used for amplifying the mutant allele.

T. cruzi = settings: T. cruzi-infected NHPs; cited from earlier work
[5] = tested on: tdTomato expressing T. cruzi (CL strain); assay: Rapid in vivo assay: footpad infection, single oral dose, fluorescence imaging 2 and 4 dpi (proliferation index);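 also: single oral dose of 50 mg/kg given at 2 dpi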; parameters: species or system C57BL/6 mice; settings: Fig. 3a; individual footpads
Experimental: Fluorescent intensity of the feet was measured at 2 dpi before compound administration and at 4 dpi in the Maestro in vivo imaging system equipped with the software Maestro 2.1.0 (CRi) as previously described. The proliferation index was estimated as PI=[(T4d – T2d)/(mUnt4d-mUnt2d)]*100; where T4d and T2d are the fluorescence intensity of the feet of the treated animals at days 4 and 2 post-infection respectively; mUnt4d and mUnt2d are the average fluorescence intensity of the feet of the untreated animals at 4 and 2 dpi respectively.

T. cruzi Brazil strain = assay: Mouse cure assays (daily oral treatment, immunosuppression, qPCR of skeletal muscle, blood microscopy, hemoculture); type: in vivo, C57BL/6 mice; settings: individual mice
Experimental: Male or female C57BL/6 mice were intraperitoneally infected with 10^4 trypomastigotes of the Brazil strain. Mouse infection was confirmed at 25-30 dpi by detection of CD8^+ T cells specific against the T. cruzi TSKb20 peptide in blood. Compounds resuspended in 1% carboxymethyl cellulose and 0.1% Tween 80, were administered daily by gavage at the specified concentrations. In order to optimally detect persistent infection, immune responses in the mice were suppressed by intraperitoneal injection of four doses of cyclophosphamide every 2-3 days (200 mg/kg/day), beginning one week after the end of therapeutic treatment. At the end of the immunosuppression regimen, peripheral blood was checked under light microscope for parasites and cultured in LDNT media. Mouse skeletal muscle samples were obtained at the end of the immunosuppression and processed for T. cruzi-DNA detection by qPCR as previously described.

[6] = Trypanosoma cruzi, Vero, intracellular T. cruzi, Fig. 5f, read-out: IC50 (nM) T. cruzi intra-
[7] = 48 hours, Fig. 5f, Extended Data Fig. 4d, read-out: IC50 (nM) T. cruzi extra-
[8] = Trypanosoma cruzi, Vero, 72 h, read-out: % of maximum, WT, single replicates
[9] = Trypanosoma cruzi, Vero, read-out: WT IC50, WT intracellular amastigotes, control of CPSF3-OE comparison
[10] = Trypanosoma cruzi, Vero, read-out: WT IC50, WT intracellular amastigotes, control of TcCBP KO comparison
[11] = Trypanosoma cruzi, Vero, in vitro, Fig. 1a, Extended Data Fig. 1a, read-out: T. cruzi IC50

CC(C)C(NC(=O)c1ccc2c(c1C1CC1)B(O)OC2)C(=O)OCc1ccccc1 (stereo not shown) [AN14577]
IC50 [1, 6]: > 1250 nM | IC50 [2, 7]: 240 nM

Cc1c(C(=O)NC(C(=O)OCc2ccc(F)cc2)C(C)C)ccc2c1B(O)OC2 (stereo not shown) [AN11736, 4-fluorobenzyll-valinate amide benzoxaborole]
activity at 0.00407 µM [1, 8]: 46% | IC50 [1, 9]: 3.2 nM | IC50 [1, 10]: 3.2 nM | % of maximum ([1]; WT, [uM] -1.43 as printed, single replicates): -1% and 1% | IC50 [3]: 0.0065 µM | IC50 [4]: 0.618 µM

Cc1c(C(=O)N[C@H](C(=O)OCc2ccccc2)C(C)C)ccc2c1B(O)OC2 [AN11735]
IC50 [2, 7]: 1.2 nM

CCc1c(C(=O)N[C@H](C(=O)OCc2ccccc2)C(C)C)ccc2c1B(O)OC2 [AN14557]
IC50 [1, 6]: 37 nM | IC50 [2, 7]: 1.5 nM

CC[C@@H]([C@H](C)O)n1ncn(-c2ccc(N3CCN(c4ccc(OC[C@@H]5CO[C@@](Cn6cncn6)(c6ccc(F)cc6F)C5)cc4)CC3)cc2)c1=O [posaconazole]
failures in treatment trial (T. cruzi): 100%

CC(C)c1c(C(=O)NC(C(=O)OCc2ccccc2)C(C)C)ccc2c1B(O)OC2 (stereo not shown) [AN14630]
IC50 [1, 6]: > 1250 nM | IC50 [2, 7]: 13 nM

CC(C)[C@H](NC(=O)c1ccc2c(c1F)B(O)OC2)C(=O)OCc1ccccc1 [AN11622]
IC50 [1, 6]: > 1250 nM | IC50 [2, 7]: 37 nM

O=C(Cn1ccnc1[N+](=O)[O-])NCc1ccccc1 [BNZ]
Parasite proliferation index of footpads infected with tdTomato-expressing T. cruzi [5]: 23.6 and 6.5 and 46.7 and 1.3 and 29.6 and 25.1 and 51.0 and 55.7 and -21.7 and -21.2

CC(C)[C@H](NC(=O)c1ccc2c(c1)B(O)OC2)C(=O)OCc1ccccc1 [AN10443]
IC50 [1, 11]: 670 nM | IC50 [2, 7]: 13 nM

Cc1c(C(=O)N[C@H](C(=O)OC2CCOCC2)C(C)C)ccc2c1B(O)OC2 [AN15572]
IC50 [1, 11]: 11 nM

Cc1c(C(=O)N[C@H](C(=O)O)C(C)C)ccc2c1B(O)OC2 [AN14667]
activity at 0.7 µM ([1]; Trypanosoma cruzi, Vero, 72 h, read-out: % of maximum, WT, [uM] 0.70, single replicates): 43% | activity at 1 µM ([1]; Trypanosoma cruzi, Vero, 72 h, read-out: % of maximum, WT, [uM] 1.00, single replicates): 0% | activity at 0.7 µM ([1]; Trypanosoma cruzi, Vero, 72 h, read-out: % of maximum, WT, concentration 0.70 [uM] as printed): 43% | activity at 0.1 µM ([1]; Trypanosoma cruzi, Vero, 72 h, read-out: % of maximum, intracellular, [uM] 0.10): 86% | activity at 0.4 µM ([1]; Trypanosoma cruzi, Vero, 72 h, read-out: % of maximum, intracellular, [uM] 0.40): 66% | activity at 0.7 µM ([1]; Trypanosoma cruzi, Vero, 72 h, read-out: % of maximum, intracellular, [uM] 0.70): 43% | activity at 1.6 µM ([1]; Trypanosoma cruzi, Vero, 72 h, read-out: % of maximum, intracellular, [uM] 1.60): 0% | IC50 [1, 11]: 5720 nM | IC50 ([1]; Trypanosoma cruzi, Vero, intracellular amastigotes, Fig. 2a, read-out: Intracellular IC50): 3600 nM | reduced activity relative to ester prodrug ([1]; both intra- and extracellular amastigotes): ~ 1000 fold | % of maximum ([1]; intracellular, [uM] 1.60): 0% | IC50 ([2]; Fig. 2a, read-out: Extracellular IC50): 3900 nM | activity at 0.1 µM ([3]; [uM] 0.10, single replicates): 97% | activity at 0.4 µM ([3]; [uM] 0.40 as printed, single replicates): 102% | activity at 0.7 µM ([3]; [uM] 0.70, single replicates): 108% | activity at 1 µM ([3]; [uM] 1.00, single replicates): 89% | activity at 1.3 µM ([3]; [uM] 1.30 [sic], single replicates): 59% | activity at 1.6 µM ([3]; [uM] 1.60 as printed, single replicates): 27% | activity at 0.1 µM ([3]; concentration 0.10 [uM] as printed): 97% | activity at 0.4 µM ([3]; concentration 0.40 [uM] as printed): 102% | activity at 0.7 µM ([3]; concentration 0.70 [uM] as printed): 108% | activity at 1 µM ([3]; concentration 1.00 [uM] as printed): 89% | activity at 1.3 µM ([3]; concentration 1.30 [uM] as printed): 59% | activity at 1.6 µM ([3]; concentration 1.60 [uM] as printed): 27%

Cc1c(C(=O)NC(C(=O)OCC2CCOC2)C(C)C)ccc2c1B(O)OC2 (stereo not shown) [AN16109]
activity at 0.00407 µM [1, 8]: 75% | IC50 [1, 9]: 6.6 nM | IC50 [1, 10]: 6.6 nM | IC50 [1, 11]: 5 nM | % of maximum ([1]; WT, [uM] 0.00 as printed, single replicates): 0% | % of maximum ([1]; WT, [uM] -1.91 as printed, single replicates): 13% | IC50 [3]: 0.0227 µM | IC50 [4]: 2.5 µM | Parasite proliferation index of footpads infected with tdTomato-expressing T. cruzi [5]: 52.8 and 35.3 and 33.3 and 35.0 and 26.3 and 26.8 and -3.0 and 4.6 and 35.6 and 29.4 | Parasite equivalent/ 50 ng of DNA of skeletal muscle (T. cruzi Brazil strain; Fig. 3c, mice treated for 20 days): 0.11 Parasite equivalent/ 50 ng of DNA and 0.27 Parasite equivalent/ 50 ng of DNA and 0.0541 Parasite equivalent/ 50 ng of DNA and 0.0079 Parasite equivalent/ 50 ng of DNA and 0.12 Parasite equivalent/ 50 ng of DNA and 0.0367 Parasite equivalent/ 50 ng of DNA | Parasite equivalent/ 50 ng of DNA of skeletal muscle (T. cruzi Brazil strain; Fig. 3e, mice treated for 40 days with 2.5 mg/kg, 2.5 mg/kg): 0.223 Parasite equivalent/ 50 ng of DNA and 0.2345 Parasite equivalent/ 50 ng of DNA and 0.468 Parasite equivalent/ 50 ng of DNA and 0.01907 Parasite equivalent/ 50 ng of DNA and 0.1637 Parasite equivalent/ 50 ng of DNA and 1.455 Parasite equivalent/ 50 ng of DNA and 0.04407 Parasite equivalent/ 50 ng of DNA and 0.06524 Parasite equivalent/ 50 ng of DNA
